Here are results for four compounds from US20110124745A1, “Switchable Anionic Surfactants and Methods of Making and Using Same” (priority 2009, published 2011).

A short description of data set [1]: Soil washing: amount of oil removed from contaminated sand. How it is done:
Oil-contaminated soil was prepared in the following manner. North Sea crude oil (2.4 to 2.6 g) (Chevron, San Ramon, Calif., USA) was poured into a beaker. Tetrahydrofuran (THF) (to dissolution, approximately 50 mL) was added and the beaker and its contents were swirled to dissolve the oil. Ottawa sand (60 g) (EMD Chemicals, Gibbstown N.J., USA) was poured into the beaker and the contents of the beaker was swirled again. The beaker was left uncovered overnight at room temperature to allow the THF to evaporate. Then, the sand was broken up and mixed in the beaker. The beaker was left uncovered for a further time period so that total elapsed time for evaporation was 24 hours. The contaminated sand was then poured into a pre-weighed petrie dish, which was then placed into an oven at 110° C. and heated for 24 hours. After the petrie dish was removed from the oven and had cooled to room temperature, the sample and dish were weighed together. The contaminated sand was then transferred to a 100 mL amber vial for storage. This heat treatment was intended to simulate weathering of the contaminated soil. This procedure provided a sample of soil with 3.0 wt % oil contamination.
A 0.5 wt % surfactant solution was prepared in the following manner: surfactant (0.25 g) was added to a 50 mL volumetric flask. Deionized water at room temperature was added to achieve a total mass of 50 g. Sonication of the solution assisted with dissolving the surfactant.
A 0.5 wt % surfactant solution was prepared in the following manner: Deionized water was heated to 50° C. Surfactant (0.25 g) was added to a 50 mL volumetric flask. The heated water was added to achieve a total mass of 50 g. Swirling and shaking of the flask was sufficient to dissolve the surfactant.
A 0.1 wt % surfactant solution was also prepared using the above-described procedure wherein 0.0583 g of surfactant was used.
The contaminated sand of Example 7A was washed in the following manner. Three 20 mL vials were labelled and their empty masses were, recorded. Contaminated sand (5.1 g) was added to each vial and the vial's new masses were recorded. The surfactant solution was added to each vial using a syringe to achieve 10 g of solution. A stir bar was also added. The vials were capped with TEFLON®-lined lids and shaken manually for 20 seconds. The vials were placed in a beaker, to keep them upright. The beaker was placed on a stir plate and the vials were stirred at 470 rpm for 1 hour. Each vial was then manually shaken for 20 seconds. Then the stirring was continued for a second hour. The liquid portion of the samples was poured into separate 20 mL vials and is referred to below as “first decant solution”. The original vials (and their remaining contents) were each rinsed with 50 mL of deionized water and that rinse water was then added to 50 mL Wheaton jars and is referred to below as “wash solution”.
Sand washing was also carried out at elevated temperature by following the procedure as described in Example 7D with the difference that vials were placed into a 50° C. water bath. The water bath was placed on a stirring hot plate and was maintained 50° C. and the vials were stirred at 470 rpm for 1 hour. Each vial was then manually shaken for 20 seconds. Then the stirring was continued for a second hour. The liquid portion of the samples was poured into separate 20 mL vials and is referred to below as “first decant solution”. The original vials were each rinsed with 50 mL of deionized water and that rinse water was then added to 50 mL Wheaton jars and is referred to below as “wash solution”.
Oil remaining on the soil of Examples 7A-E was quantified in the following manner. An extraction was performed using 10 mL of a 1:1 dichloromethane:hexanes liquid mixture. This mixture was added to vials housing washed sand (the term “washed sand” refers to 5.1 g of contaminated sand from Example 7A that has been washed and rinsed using the procedures of Example 7D or 7E). […]

Data set [2] in a line: Switchability using DMSO-d6 (CO2 bubbling, 1H NMR). In kind it is physicochemical. The following applies: 0.01 M solution in DMSO-d6, non-aqueous. The source says:
(§1) Since n-octyl 4-hydroxy-3-nitrobenzoate (1N) and the […] salt of (1A) are soluble in DMSO and have some characteristic signals in the ^1H NMR spectrum, […] was used as a solvent to monitor the non-aqueous switchability by NMR spectroscopy.

Data set [3] in a line: Solubility observations (aqueous solution, DMSO). The following applies: DMSO. It counts as physicochemical.
Source text: The following study confirmed that compounds (1A) and (1N) reversibly convert from the neutral form (1N) to the anionic form (1A) and back to the neutral form over and over again with substantially no loss of product. The conversion was verified visually since the neutral form was not soluble in aqueous solution and appeared as a white precipitate in colourless liquid while the anionic form was fully soluble in aqueous solution and appeared as a clear yellow liquid (see FIG. 2). In addition to visual examination, ^1H NMR studies that are described below confirmed the presence of the hydroxyl proton in the spectra of the neutral form.
as §1

The mark [4] stands for this setting: 50° C. Washing, 0.5 wt % surfactant solution.
Setting [5] is: Room Temperature Washing, 0.5 wt % surfactant solution.

Consider `CCCCCCCCCCCCOS(=O)(=O)[O-].[Na+]` [Sodium Dodecyl Sulfate (SDS), Sodium Dodecyl Sulfate], for which the “Amount of oil removed from sand” value in data set [1] (setting [4]) was 86%; in data set [1] (Room Temperature Washing, 0.5 wt % surfactant solution, Sulfate), 40%; in data set [1] (Room Temperature Washing, 0.5 wt % surfactant solution, listed as sodium dodecyl sulfate (SDS), Sulfate) it was 40%.

Consider “potassium 4-hydroxy-3-nitrobenzoate [potassium salt of (1A)]”, for which, in data set [2], the “conversion on CO2 bubbling by 1H NMR” value is recorded as “no conversion was apparent”. Further, the “solubility in DMSO” value in data set [3] is on record as “soluble”.

As to Triton X-100, the figures for the “Amount of oil removed from sand” value in data set [1] (setting [4]) and in data set [1] (setting [5]) were 94% and 68%, respectively.

As to `CCCCCCCCOC(=O)c1ccc(O)c([N+](=O)[O-])c1.[Na]` [Sodium octyl 4-hydroxy-3-nitrobenzoate], the “Amount of oil removed from sand” value in data set [1] (50° C. Washing, 0.1 wt % surfactant solution) is reported as 94%; in data set [1] (setting [4]) it was 94-97%; in data set [1] (setting [5]), 82%.
